Three compounds from patent publication US11739120B2, “Water soluble salts of lipidated peptides and methods for preparing and using the same” (Bridge Biotherapeutics, Inc., priority 2018, dated 2023) can be followed below.

Residues, ends and D or L forms follow the SMILES beside them. *: point of attachment. Palmitoyl = CCCCCCCCCCCCCCCC(=O)*

Data set [1] can be described thus: Approximate solubility of Compound I-2 (amorphous) at room temperature. Format: physicochemical. As to the method: The solubility of Compound I-2 (amorphous) at room temperature was tested using a method similar to those described in Examples 4 and 5. The solubility test results are described in Table 6.
Data set [2] in a line: Solubility of amorphous, Form A and Form E of Compound I-1 in water (shaken at 25° C., HPLC). Format: physicochemical. The note with it: for Final pH: mother liquor; for Final pH / Solubility at 25° C.: water; for Final pH / XRPD pattern (wet): 25° C.; for XRPD pattern (wet): residue of the suspension in water. As to the method: The solubility of amorphous, Form A or E of Compound I-1 in water was further studied. Specifically, about 250 mg Compound I-1 in amorphous, Forms A and E were each suspended in a 2 mL HPLC vial with 0.9 mL of water. Each suspension was then shaken at 25° C. under 1000 rpm. The suspensions were analyzed at 1 h and 24 h. In particular, at either the 1 h or 24 h time point, the slurries were centrifuged and analyzed by HPLC. The pH values of the mother liquors were measured, and the residues were characterized by XRPD.

The term solubility denotes the dissolved amount per volume that the medium holds. Higher therefore signals a readily soluble substance. Consider `CCCCCCCCCCCCCCCC(=O)N1CCC[C@H]1C(=O)N1CCC[C@H]1C(=O)NCC(=O)N[C@@H](Cc1ccc(O)cc1)C(=O)[O-].[K+]` [Compound I-2 (amorphous)] (Palmitoyl-PPGY-OH), for which the solubility in data set [1] (1,4-Dioxane) is less than 1 mg/mL; in data set [1] (1-butanol), 1 to 5 mg/mL; in data set [1] (2-Methyl Tetrahydrofuran), less than 1 mg/mL; in data set [1] (Acetone), less than 1 mg/mL; in data set [1] (Acetone: H2O (97:3)) it was less than 1 mg/mL; in data set [1] (Acetonitrile) it was less than 1 mg/mL. Moreover, the solubility in data set [1] (Acetonitrile:H2O (95:5)) is less than 1 mg/mL; in data set [1] (Cyclohexane), less than 1 mg/mL; in data set [1] (DMF), 50 to 100 mg/mL; in data set [1] (DMSO), 50 to 100 mg/mL; in data set [1] (Ethanol), 50 to 100 mg/mL; in data set [1] (Ethanol:H2O (90:10)), 25 to 50 mg/mL. The solubility in data set [1] (Ethanol:H2O (95:5)) was 25 to 50 mg/mL; in data set [1] (Ethyl acetate), less than 1 mg/mL; in data set [1] (Heptane) it was less than 1 mg/mL; in data set [1] (Isopropyl acetate), less than 1 mg/mL; in data set [1] (Isopropyl alcohol), 1 to 5 mg/mL; in data set [1] (Methanol) it was more than 100 mg/mL. In addition, the solubility in data set [1] (Methanol:H2O (90:10)) was more than 100 mg/mL; in data set [1] (Methanol:H2O (95:5)), more than 100 mg/mL; in data set [1] (Methyl ethyl ketone), less than 1 mg/mL; in data set [1] (Methyl isobutyl ketone) it was less than 1 mg/mL; in data set [1] (Methyl t-butyl ether) it was less than 1 mg/mL; in data set [1] (N-methyl pyrrolidone) it was 50 to 100 mg/mL. Further, the solubility in data set [1] (Tetrahydrofuran) was less than 1 mg/mL; in data set [1] (Tetrahydrofuran:H2O (95:5)), 50 to 100 mg/mL; in data set [1] (Toluene) it was less than 1 mg/mL; in data set [1] (Water), more than 100 mg/mL.

For orientation: Solubility means how much of the substance goes into solution per volume. Take `CCCCCCCCCCCCCCCC(=O)N1CCC[C@H]1C(=O)N1CCC[C@H]1C(=O)NCC(=O)N[C@@H](Cc1ccc(O)cc1)C(=O)[O-].[Na+]` [Form A] (Palmitoyl-PPGY-OH): in data set [2] (time point 1 hour), the “Final pH” value is recorded as 8.91 and the “XRPD pattern (wet)” value is “A + D”. Also, in data set [2] (time point 24 hours), the “Final pH” value worked out at 8.70 and the “Solubility at 25° C.” value came to 208.6 mg/mL.

Regarding `CCCCCCCCCCCCCCCC(=O)N1CCC[C@H]1C(=O)N1CCC[C@H]1C(=O)NCC(=O)N[C@@H](Cc1ccc(O)cc1)C(=O)[O-].[Na+]` [Form E] (Palmitoyl-PPGY-OH), in data set [2] (time point 1 hour), the “Final pH” value was 9.08 and the “XRPD pattern (wet)” value was “A + D”. In data set [2] (time point 24 hours), the “Final pH” value turned out to be 8.70 and the “Solubility at 25° C.” value is 199.4 mg/mL.
